Source: publication PMC3900303 (Toxicology and applied pharmacology, 2013)
Read-outs that look alike come from different tables or passages of the source. Blank lines part the entries; values can stand above or below the compound they belong to.

Tests used:
[1] = system: Human iPSC-derived cardiomyocytes; assay: High-throughput cardiomyocyte beating assay; conditions: for effect on beating parameters at 30 minutes: 30 min exposure; for impact on the shape of the peaks: compounds known to prolong the QT interval; for chronotrope effect / effect on the beating rate / beat rate / effect on spacing between peaks and regularity: general clustering analysis of concentration-response; for effect on the beating rate / beat rate: 3 nM to 30 μM; for effect on beating: at 3 μM; for hormesis-like concentration effect on beating rate: low vs high concentrations
[2] = system: Human iPSC-derived cardiomyocytes
[3] = system: Human iPSC-derived cardiomyocytes; assay: Cell viability imaging; assay type: cell-based; conditions: evaluated 24 hrs after treatment

effect on beating parameters at 30 minutes [1]: did not have an effect
Structure (SMILES): O=c1[nH]cc(F)c(=O)[nH]1 [5-fluoracil]

chronotrope effect [1]: negative chronotrope effect
Structure (SMILES): CCCCc1oc2ccccc2c1C(=O)c1cc(I)c(OCCN(CC)CC)c(I)c1 [amiodarone]
impact on the shape of the peaks [1]: profound impact

effect on the beating rate / beat rate [1]: strongly inhibited
Structure (SMILES): COc1ccc(CCN2CCC(Nc3nc4ccccc4n3Cc3ccc(F)cc3)CC2)cc1 [astemizol]

effect on the beating rate / beat rate [1]: strongly inhibited
Structure (SMILES): CC(C)COCC(CN(Cc1ccccc1)c1ccccc1)N1CCCC1 (stereo not drawn) [bepridil]

beating profile ([1]; multi-parametric peak pattern): appearance of wide peaks
Structure (SMILES): CCCCN1CCCCC1C(=O)Nc1c(C)cccc1C (stereo not drawn) [bupivacaine]

Structure (SMILES): N.N.[Cl][Pt][Cl] [cisplatin, cis-diamineplatinum(II)dichloride]
effect on beating parameters at 30 minutes [2]: did not have an effect

effect on beating parameters at 30 minutes [1]: did not have an effect
Structure (SMILES): COc1cccc2c1C(=O)c1c(O)c3c(c(O)c1C2=O)C[C@@](O)(C(C)=O)C[C@@H]3O[C@H]1C[C@H](N)[C@H](O)[C@H](C)O1 [daunorubicin]

Structure (SMILES): CNCCCN1c2ccccc2CCc2ccccc21 [desipramine]
impact on the shape of the peaks [1]: profound impact

effect on beating parameters at 30 minutes [1]: did not have an effect
Structure (SMILES): O=C(O)Cc1ccccc1Nc1c(Cl)cccc1Cl [diclofenac]

Structure (SMILES): C[C@H]1O[C@@H](O[C@H]2[C@@H](O)C[C@H](O[C@H]3[C@@H](O)C[C@H](O[C@H]4CC[C@@]5(C)[C@H](CC[C@@H]6[C@@H]5CC[C@]5(C)[C@@H](C7=CC(=O)OC7)CC[C@]65O)C4)O[C@@H]3C)O[C@@H]2C)C[C@H](O)[C@@H]1O [digitoxin]
effect on beating [1]: blocked beating completely

effect on beating [1]: blocked beating completely
Structure (SMILES): C[C@H]1O[C@@H](O[C@H]2[C@@H](O)C[C@H](O[C@H]3[C@@H](O)C[C@H](O[C@H]4CC[C@@]5(C)[C@H](CC[C@@H]6[C@@H]5C[C@@H](O)[C@]5(C)[C@@H](C7=CC(=O)OC7)CC[C@]65O)C4)O[C@@H]3C)O[C@@H]2C)C[C@H](O)[C@@H]1O [digoxin]
hormesis-like concentration effect on beating rate [1]: increased at low concentrations, but decreased or completely stopped at high doses

effect on the beating rate / beat rate [1]: strongly inhibited
Structure (SMILES): COc1ccc([C@@H]2Sc3ccccc3N(CCN(C)C)C(=O)[C@@H]2OC(C)=O)cc1 [diltiazem]

effect on the beat rate ([1]; 30 min exposure time-point): no effect
effect on the peak shape parameters ([1]; 30 min exposure time-point (Figure 2)): clear concentration-dependent effect
effect on spacing between peaks and regularity [1]: affected
effect on the beating rate / beat rate [1]: little effect
Structure (SMILES): CC(C)N(CCC(C(N)=O)(c1ccccc1)c1ccccn1)C(C)C (stereo not drawn) [disopyramide]
impact on the shape of the peaks [1]: profound impact
effect on cell viability [3]: No effect

effect on beating parameters at 30 minutes [1]: did not have an effect
Structure (SMILES): COc1cccc2c1C(=O)c1c(O)c3c(c(O)c1C2=O)C[C@@](O)(C(=O)CO)C[C@@H]3O[C@H]1C[C@H](N)[C@H](O)[C@H](C)O1 [doxorubicin]

effect on spacing between peaks and regularity [1]: affected
effect on the beating rate / beat rate [1]: little effect
Structure (SMILES): CC(=O)O.O=C(NCC1CCCCN1)c1cc(OCC(F)(F)F)ccc1OCC(F)(F)F (stereo not drawn) [flecainid acetate]

effect on beating parameters at 30 minutes [1]: did not have an effect
Structure (SMILES): CC(C)Cc1ccc(C(C)C(=O)O)cc1 (stereo not drawn) [ibuprofen]

Structure (SMILES): CN(C)CCCN1c2ccccc2CCc2ccccc21 [imipramine]
impact on the shape of the peaks [1]: profound impact

chronotrope effect [1]: positive chronotrope effect
Structure (SMILES): CC(C)NCC(O)c1ccc(O)c(O)c1 (stereo not drawn) [isoproterenol]

Structure (SMILES): CCN(CC)CC(=O)Nc1c(C)cccc1C [lidocaine]
effect on spacing between peaks and regularity [1]: affected
effect on the beating rate / beat rate [1]: little effect

effect on beating parameters at 30 minutes [1]: did not have an effect
Structure (SMILES): Cc1cnc(NC(=O)C2=C(O)c3ccccc3S(=O)(=O)N2C)s1 [meloxicam]

effect on the beating rate / beat rate [1]: strongly inhibited
Structure (SMILES): COC(=O)C1=C(C)NC(C)=C(C(=O)OCCN(C)Cc2ccccc2)C1c1cccc([N+](=O)[O-])c1 (stereo not drawn) [nicardipine]

chronotrope effect [1]: negative chronotrope effect
Structure (SMILES): CC(C)NCC(O)COc1cccc2[nH]ccc12 (stereo not drawn) [pindolol]

effect on beating parameters at 30 minutes [1]: did not have an effect
Structure (SMILES): CCc1ccc(CCOc2ccc(CC3SC(=O)NC3=O)cc2)nc1 (stereo not drawn) [pioglitazone]

Structure (SMILES): CCN(CC)CCNC(=O)c1ccc(N)cc1 [procainamide]
impact on the shape of the peaks [1]: profound impact

Structure (SMILES): C=C[C@H]1C[N@@]2CC[C@H]1C[C@@H]2[C@@H](O)c1ccnc2ccc(OC)cc12 [quinidine]
impact on the shape of the peaks [1]: profound impact

effect on beating parameters at 30 minutes [1]: did not have an effect
Structure (SMILES): CS(=O)(=O)c1ccc(C2=C(c3ccccc3)C(=O)OC2)cc1 [rofecoxib]

effect on beating parameters at 30 minutes [1]: did not have an effect
Structure (SMILES): CN(CCOc1ccc(CC2SC(=O)NC2=O)cc1)c1ccccn1 (stereo not drawn) [rosiglitazone]

Structure (SMILES): OCc1cc(C(O)CNCCCCCCOCCCCc2ccccc2)ccc1O (stereo not drawn) [salmeterol]
hormesis-like concentration effect on beating rate [1]: increased at low concentrations, but decreased or completely stopped at high doses

Structure (SMILES): CC(C)NCC(O)c1ccc(NS(C)(=O)=O)cc1 (stereo not drawn) [sotalol]
impact on the shape of the peaks [1]: profound impact

effect on the beating rate / beat rate [1]: strongly inhibited
Structure (SMILES): CC(C)(C)c1ccc(C(O)CCCN2CCC(C(O)(c3ccccc3)c3ccccc3)CC2)cc1 (stereo not drawn) [terfenadine]
